The source of these data is US11000033B2, “Ketone or oxime compound, and herbicide” (NISSAN CHEMICAL CORPORATION, priority 2014, dated 2021).

Holding throughout (assay type): in vivo
The subject of data set [1] is Echinochloa oryzacola Vasing. Kind of data set: Test Example 1: herbicidal activity, application before weed generation in submerged conditions (symbol A). The following applies: application herbicide amount 320 g/ha. In a few lines:
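Compound emulsion was diluted to a set herbicide amount and applied to the water surface on the sowing day, into submerged (4 cm) alluvial-soil pots sown with mixed weed seeds and transplanted 2.5-leaf rice. Pots were held in a 25–30 °C greenhouse, and weeds were scored 0–5 by herbicidal ratio after 3 weeks.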

Another data set concerns transplanted rice plant. The data set is described as follows: Test Example 1: effect on crop, application before weed generation in submerged conditions (symbol a). The settings on record: application herbicide amount 320 g/ha. In a few lines:
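Alluvial soil pots flooded to 4 cm water, sown with Echinochloa oryzacola, Scirpus juncoides and Monochoria vaginalis, then transplanted with 2.5 leaf stage rice seedlings; pre-emergence application. Greenhouse 25° C. to 30° C.; scored 0–5 by herbicidal ratio 3 weeks after application.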

The subject of the next data set is Monochoria vaginalis. The data set is described as follows: Test Example 2: herbicidal activity, application during weed generation in submerged conditions (symbol C). The settings on record: Table 23; application herbicide amount 320 g/ha; grade 0-5 by criteria of Test Example 1. In outline: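 Steps: fill pots with alluvial soil; add water to 4 cm depth; co-sow the three weeds; grow at 25° C. to 30° C. under glass; at 1–2 leaves, dose the floodwater with diluted emulsion; rate damage visually after 3 weeks.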

The next data set deals with Digitaria ciliaris. Kind of data set: Test Example 4: herbicidal effect by soil treatment (symbol F). The following applies: application herbicide amount 320 g/ha. In a few lines:
(§1)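 Seeds were sown in sterilized diluvial soil, covered with about 1.5 cm of soil, and the soil surface was sprayed with a water-diluted emulsion of the compound at a predetermined rate. Plants grew in a greenhouse at 25° C. to 30° C.; effects were scored visually 3 weeks after application.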

The subject of data set [2] is Echinochloa crus-galli var. crus-galli. The data set is described as follows: Test Example 4: herbicidal effect by soil treatment (symbol H). The following applies: application herbicide amount 320 g/ha. In outline: as §1
The next data set concerns Avena fatua. Kind of data set: Test Example 4: herbicidal effect by soil treatment (symbol I). The following applies: application herbicide amount 320 g/ha. In outline: as §1
The subject of data set [3] is Lolium multiflorum Lam. The data set is described as follows: Test Example 4: herbicidal effect by soil treatment (symbol K). The settings on record: application herbicide amount 320 g/ha. In a few lines: as §1
The subject of data set [4] is Apera spica-venti. Kind of data set: Test Example 4: herbicidal effect by soil treatment (symbol L). The settings on record: application herbicide amount 320 g/ha. In outline: as §1
Another data set deals with Chenopodium album. Kind of data set: Test Example 4: herbicidal effect by soil treatment (symbol O). The following applies: application herbicide amount 320 g/ha. In outline:
as §1

In data set [5] the test system is Stellaria media. The data set is described as follows: Test Example 4: herbicidal effect by soil treatment (symbol P). The settings on record: application herbicide amount 320 g/ha. In outline: as §1
Another data set concerns Veronica persica. Kind of data set: Test Example 4: herbicidal effect by soil treatment (symbol R). The settings on record: application herbicide amount 320 g/ha. In a few lines:
as §1

Another data set deals with soybean. The data set is described as follows: Test Example 4: effect on crop by soil treatment (symbol d). The settings on record: application herbicide amount 320 g/ha. In a few lines: (§2)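 Grown at 25° C. to 30° C. in a greenhouse, the crops came from seed sown spot-wise in sterilized diluvial soil under roughly 1.5 cm of covering soil.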
For another data set, the system named is rice. Kind of data set: Test Example 4: effect on crop by soil treatment (symbol b). The settings on record: application herbicide amount 320 g/ha. In a few lines: as §2
For another data set, the system named is rapeseed. Kind of data set: Test Example 4: effect on crop by soil treatment (symbol g). The following applies: application herbicide amount 320 g/ha. In a few lines: as §2
In data set [6] the test system is Echinochloa crus-galli var. crus-galli. The data set is described as follows: Test Example 5: herbicidal effect by foliage application, plastic box (symbol H). The following applies: 320 g/ha, 3 weeks after application. In outline:
(§3)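 Seeds were sown in sterilized diluvial soil, covered with about 1.5 cm of soil and grown 14 days in a greenhouse at 25° C. to 30° C. An emulsifiable formulation diluted in water to a set rate was sprayed over foliage, and injury was scored 3 weeks later.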

Data set [7] deals with Lolium multiflorum Lam. Kind of data set: Test Example 5: herbicidal effect by foliage application, plastic box (symbol K). The settings on record: 320 g/ha, 3 weeks after application. In a few lines: as §3
In data set [8] the test system is Apera spica-venti. The data set is described as follows: Test Example 5: herbicidal effect by foliage application, plastic box (symbol L). The settings on record: 320 g/ha, 3 weeks after application. In outline:
as §3

Data set [9] deals with Stellaria media. Kind of data set: Test Example 5: herbicidal effect by foliage application, plastic box (symbol P). The following applies: 320 g/ha, 3 weeks after application. In a few lines:
as §3

Take `CCC(=O)CC1CC(O)=C(c2c(C)cc(C)cc2C)C1=O` (stereo not drawn) [2-006]: in data set [1], the “Herbicidal effect grade, A: Echinochloa oryzacola Vasing.” value was 5 (Herbicidal ratio of 90% or more (almost completely withered)). Moreover, the “Effect grade on crop, a: transplanted rice plant” value (“Effect grade on crop” below) in the data set on transplanted rice plant is 3 (Herbicidal ratio of 40% or higher and lower than 70%). The “Herbicidal effect grade, C: Monochoria vaginalis” value (shortened to “Herbicidal effect grade, C”) in the data set on Monochoria vaginalis was 2 (Herbicidal ratio of 20% or higher and lower than 40%). Besides, the “F: Digitaria ciliaris, herbicidal effect grade” value (“F: Digitaria ciliaris” for short) in the data set with Digitaria ciliaris is given as 5 (Herbicidal ratio of 90% or more (almost completely withered)). Moreover, the “H: Echinochloa crus-galli var. crus-galli, herbicidal effect grade” value in [2] is 5 (Herbicidal ratio of 90% or more (almost completely withered)); in [6], 4 (Herbicidal ratio of 70% or higher and lower than 90%). The “I: Avena fatua, herbicidal effect grade” value in the data set on Avena fatua is 3 (Herbicidal ratio of 40% or higher and lower than 70%). In addition, the “K: Lolium multiflorum Lam., herbicidal effect grade” value in the data set with Lolium multiflorum Lam. [3] and in the data set with Lolium multiflorum Lam. [7] was 5 (Herbicidal ratio of 90% or more (almost completely withered)) each time. In addition, the “L: Apera spica-venti, herbicidal effect grade” value (from here on “L: Apera spica-venti”) was 5 (Herbicidal ratio of 90% or more (almost completely withered)) in the data set on Apera spica-venti [4]; 3 (Herbicidal ratio of 40% or higher and lower than 70%) in the data set with Apera spica-venti [8]. Further, in the data set on Chenopodium album, the “O: Chenopodium album, herbicidal effect grade” value (“O: Chenopodium album” for short) was 0 (Herbicidal ratio of 5% or lower (almost no effect)). Also, the “P: Stellaria media, herbicidal effect grade” value (“P: Stellaria media” for short) with Stellaria media [5] and with Stellaria media [9] was 0 (Herbicidal ratio of 5% or lower (almost no effect)) in each case. In addition, the “R: Veronica persica, herbicidal effect grade” value (shortened to “R: Veronica persica”) in the data set on Veronica persica is on record as 0 (Herbicidal ratio of 5% or lower (almost no effect)). In addition, the “d: soybean, effect on crop grade” value with soybean was 0 (Herbicidal ratio of 5% or lower (almost no effect)). Also, the “b: directly sowed rice plant, effect on crop grade” value (“b: directly sowed rice plant” for short) with rice is reported as 5 (Herbicidal ratio of 90% or more (almost completely withered)). The “g: rapeseed, effect on crop grade” value in the data set on rapeseed is 4 (Herbicidal ratio of 70% or higher and lower than 90%).
With `CCOC(=O)C(CC)(C(C)=O)C1CC(O)=C(c2c(C)cc(C)cc2C)C1=O` (stereo not drawn) [2-012], the “Herbicidal effect grade, A: Echinochloa oryzacola Vasing.” value in data set [1] is reported as 0 (Herbicidal ratio of 5% or lower (almost no effect)). In addition, in the data set on transplanted rice plant, the “Effect grade on crop” value is 0 (Herbicidal ratio of 5% or lower (almost no effect)). For the same compound, in the data set on Monochoria vaginalis, the “Herbicidal effect grade, C” value was 0 (Herbicidal ratio of 5% or lower (almost no effect)). For the same compound, the “F: Digitaria ciliaris” value in the data set with Digitaria ciliaris is given as 0 (Herbicidal ratio of 5% or lower (almost no effect)). In addition, the “H: Echinochloa crus-galli var. crus-galli, herbicidal effect grade” value in data set [2] is 0 (Herbicidal ratio of 5% or lower (almost no effect)); in [6], 1 (Herbicidal ratio of 5% or higher and lower than 20%). For the same compound, the “I: Avena fatua, herbicidal effect grade” value in the data set with Avena fatua is 0 (Herbicidal ratio of 5% or lower (almost no effect)). Besides, the “K: Lolium multiflorum Lam., herbicidal effect grade” value with Lolium multiflorum Lam. [3] was 0 (Herbicidal ratio of 5% or lower (almost no effect)); in the data set with Lolium multiflorum Lam. [7], 3 (Herbicidal ratio of 40% or higher and lower than 70%). For the same compound, the “L: Apera spica-venti” value in the data set on Apera spica-venti [4] and in the data set with Apera spica-venti [8] was 0 (Herbicidal ratio of 5% or lower (almost no effect)) throughout. Further, the “O: Chenopodium album” value with Chenopodium album is on record as 0 (Herbicidal ratio of 5% or lower (almost no effect)). In addition, the “P: Stellaria media” value in the data set on Stellaria media [5] and in the data set with Stellaria media [9] was 0 (Herbicidal ratio of 5% or lower (almost no effect)) in each case. Also, the “R: Veronica persica” value in the data set on Veronica persica is on record as 0 (Herbicidal ratio of 5% or lower (almost no effect)). Moreover, in the data set on soybean, the “d: soybean, effect on crop grade” value was 0 (Herbicidal ratio of 5% or lower (almost no effect)). Further, the “b: directly sowed rice plant” value in the data set on rice was 0 (Herbicidal ratio of 5% or lower (almost no effect)). The “g: rapeseed, effect on crop grade” value in the data set with rapeseed is reported as 0 (Herbicidal ratio of 5% or lower (almost no effect)).
For the compound `CCC(C)C(=O)CC1CC(O)=C(c2c(C)cc(C)cc2C)C1=O` (stereo not drawn) [2-024], in [1], the “Herbicidal effect grade, A: Echinochloa oryzacola Vasing.” value is 2 (Herbicidal ratio of 20% or higher and lower than 40%). Besides, the “Effect grade on crop” value in the data set on transplanted rice plant is 4 (Herbicidal ratio of 70% or higher and lower than 90%). The “Herbicidal effect grade, C” value in the data set with Monochoria vaginalis is listed as 0 (Herbicidal ratio of 5% or lower (almost no effect)). The “F: Digitaria ciliaris” value in the data set with Digitaria ciliaris was 5 (Herbicidal ratio of 90% or more (almost completely withered)). Moreover, the “H: Echinochloa crus-galli var. crus-galli, herbicidal effect grade” value in data set [2] is 4 (Herbicidal ratio of 70% or higher and lower than 90%); in data set [6], 5 (Herbicidal ratio of 90% or more (almost completely withered)). Besides, in the data set on Avena fatua, the “I: Avena fatua, herbicidal effect grade” value is on record as 0 (Herbicidal ratio of 5% or lower (almost no effect)). For the same compound, the entries for the “K: Lolium multiflorum Lam., herbicidal effect grade” value in the data set with Lolium multiflorum Lam. [3] and with Lolium multiflorum Lam. [7] were 0 (Herbicidal ratio of 5% or lower (almost no effect)) and 5 (Herbicidal ratio of 90% or more (almost completely withered)), respectively. Further, the “L: Apera spica-venti” value with Apera spica-venti [4] was 0 (Herbicidal ratio of 5% or lower (almost no effect)); with Apera spica-venti [8], 2 (Herbicidal ratio of 20% or higher and lower than 40%). Besides, the “O: Chenopodium album” value in the data set on Chenopodium album is on record as 0 (Herbicidal ratio of 5% or lower (almost no effect)). Moreover, the “P: Stellaria media” value in the data set on Stellaria media [5] and in the data set on Stellaria media [9] was 0 (Herbicidal ratio of 5% or lower (almost no effect)) in each case. Further, the “R: Veronica persica” value in the data set on Veronica persica was 0 (Herbicidal ratio of 5% or lower (almost no effect)). Further, the “d: soybean, effect on crop grade” value in the data set on soybean was 0 (Herbicidal ratio of 5% or lower (almost no effect)). The “b: directly sowed rice plant” value in the data set on rice is recorded as 5 (Herbicidal ratio of 90% or more (almost completely withered)). Besides, the “g: rapeseed, effect on crop grade” value in the data set on rapeseed is 0 (Herbicidal ratio of 5% or lower (almost no effect)).
As to `COC(=O)C(C(=O)C1CC1)C1CC(O)=C(c2c(C)cc(C)cc2C)C1=O` (stereo not drawn) [2-014], the “Herbicidal effect grade, A: Echinochloa oryzacola Vasing.” value in data set [1] is 4 (Herbicidal ratio of 70% or higher and lower than 90%). The “Effect grade on crop” value with transplanted rice plant was 1 (Herbicidal ratio of 5% or higher and lower than 20%). Also, in the data set on Monochoria vaginalis, the “Herbicidal effect grade, C” value is reported as 0 (Herbicidal ratio of 5% or lower (almost no effect)). For the same compound, in the data set on Digitaria ciliaris, the “F: Digitaria ciliaris” value was 5 (Herbicidal ratio of 90% or more (almost completely withered)). In addition, the “H: Echinochloa crus-galli var. crus-galli, herbicidal effect grade” value in data set [2] and in data set [6] was 5 (Herbicidal ratio of 90% or more (almost completely withered)) throughout. Also, the “I: Avena fatua, herbicidal effect grade” value with Avena fatua is listed as 0 (Herbicidal ratio of 5% or lower (almost no effect)). Besides, the “K: Lolium multiflorum Lam., herbicidal effect grade” value was 4 (Herbicidal ratio of 70% or higher and lower than 90%) in the data set with Lolium multiflorum Lam. [3]; 5 (Herbicidal ratio of 90% or more (almost completely withered)) in the data set with Lolium multiflorum Lam. [7]. The “L: Apera spica-venti” value with Apera spica-venti [4] is 2 (Herbicidal ratio of 20% or higher and lower than 40%); with Apera spica-venti [8], 4 (Herbicidal ratio of 70% or higher and lower than 90%). Also, the “O: Chenopodium album” value in the data set on Chenopodium album is 0 (Herbicidal ratio of 5% or lower (almost no effect)). The “P: Stellaria media” value with Stellaria media [5] and in the data set on Stellaria media [9] was 0 (Herbicidal ratio of 5% or lower (almost no effect)) throughout. Further, the “R: Veronica persica” value in the data set on Veronica persica was 0 (Herbicidal ratio of 5% or lower (almost no effect)). The “d: soybean, effect on crop grade” value in the data set with soybean is on record as 0 (Herbicidal ratio of 5% or lower (almost no effect)). Besides, in the data set on rice, the “b: directly sowed rice plant” value is 5 (Herbicidal ratio of 90% or more (almost completely withered)). Further, in the data set on rapeseed, the “g: rapeseed, effect on crop grade” value is 0 (Herbicidal ratio of 5% or lower (almost no effect)).
